Where a name gives a salt, the structure may show the parent alone.
Assay: Simulated smoking tests (Example 14)
Details: API alkalinized with excess NaOH, heated with a Sterno burner for 15 minutes

SMILES: CN1CC[C@]23c4c5ccc(O)c4O[C@H]2[C@@H](O)C=C[C@H]3[C@H]1C5 [Morphine sulfate pentahydrate, morphine hemi(sulfate pentahydrate)]
- API volatilized: about 21%

— patent US12161754B2, “Abuse deterrent morphine sulfate dosage forms” (Purdue Pharma L.P., priority 2017, dated 2024)
